From patent publication US20190330167A1, “ACTIVATORS OF HIV LATENCY” (priority 2016, published 2019)
Like-named read-outs stand apart in the source and are kept apart here.

System: HIV-1 long terminal repeat (LTR)-driven luciferase reporter gene in FlipIn.FM HEK293 cells
Experiment: cells
Type: cell-based
Conditions: 11-point, 2-fold dilution series, highest concentration 40 μM, read-out: Latent reporter Av EC50
Procedure: FIG. 44. […] The FlipIn.FM model of HIV-1 latency was treated with JQ1 (+) and DP#14 (Compound 7) alone at 10 μM and in combination, and the HIV-1 gene expression measured 48 hrs post treatment. Error bars represent standard deviation of n=3 experiments. OPTI represents media alone, without DP#14.
FIG. 46. […] The FlipIn.FM model of HIV-1 latency was treated with PFI-1 and DP#14 alone at 10 μM and in combination, and the HIV-1 gene expression measured 48 hrs post treatment. Error bars represent standard deviation of n=3 experiments. OPTI represents media alone, without DP#14.
Explicitly, HEK293 derived FlipIn-FM and FlipIn-RV dual reporter cells each include a single stable HIV-1 long terminal repeat (LTR)-driven luciferase reporter genes, with a second complimentary non-HIV (off-target) luciferase reporter. These cell lines model post integration latency and read-through transcription by expressing a low level of HIV-1 Tat protein via a native Internal Ribosome Entry Site (IRES) found within Tat, from a chimeric cellular-tat gene cassette. FlipIn-FM and FlipIn-RV clones were chosen for low basal levels of LTR activity and high responsiveness to Tat as well as many Latency Reversing Agents (LRAs).
The dual reporter cell lines contain three stably integrated constructs that together allow for detection of novel LRAs, capable of potent and specific HIV reactivation. The FlipIn.FM line contains a proviral LTR-driven nef/CBR reporter fusion gene, allowing for detection of viral gene expression. A second CMV-driven CBG luciferase reporter allows for detection of off target drug effects, including non-specific activation and drug toxicity. The third construct contains the first coding exon of HIV-1 tat, within human Growth Hormone (hGH) as a chimeric gene, expressing HIV-1 Tat protein from an IRES mechanism that underlies the tat exon. This construct models read-through transcription and the low level of Tat protein expression that occurs during post integration latency. The counter screening reverse cell line, FlipIn.RV, contains the same three components with the Click Beetle Luciferase genes in the opposite orientation (LTR-CBG and CMV-CBR) for counter screening.
Compounds were evaluated in an 11-point titration using normal CMV-CBG/LTR-CBR reporter cell line and an 11 point reverse CMV-CBR/LTR-CBG reporter cell line.
The FlipIn cell lines were therefore designed with a dual purpose, to detect novel compounds that reactivate HIV-1 and to also screen out compounds that behaved in a largely non-specific manner. To achieve the latter, the cell lines contain an “off target” reporter gene construct, driven by the unrelated CMV-IE promoter, that allows for the detection of drug mediated off target effects including global gene activation as well as possible toxicity.
The HIV-LTR driven latent reporter gene identifies the HIV-specific activation, and the term “global reporter” is interchangeable with “off target reporter” and refers to the unrelated CMV-IE promoter driven reporter gene, which is used as a surrogate for global gene activation. […] The highest concentration tested here was 40 μM.

[1] = Human immunodeficiency virus 1, HEK293, HIV-LTR driven latent reporter

Compound	EC50 [1]	EC50 (HIV-LTR driven latent reporter)
Cc1cnc(NC(=O)CCCOc2ccc(Cl)c(C(F)(F)F)c2)s1 [Compound 38]	5.07 µM	–
Cc1cnc(NC(=O)CCCOc2cccc(O)c2)s1 [Compound 43]	12.5 µM	–
Cc1cnc(NC(=O)CCCNc2ccc(Cl)c(C(F)(F)F)c2)s1 [Compound 58]	2 µM	–
Cc1cnc(NC(=O)CCCN(C)c2ccccc2)s1 [Compound 56]	14.8 µM	–
CC(C)c1cnc(NC(=O)CCCOc2ccccc2)s1 [Compound 52]	3.8 µM	–
Cc1cnc2[nH]c(CCCOc3ccc(C)c(Cl)c3)nc2c1 [Compound 76]	7.75 µM	–
Cc1cnc(NC(=O)CCCOc2cccc(C=O)c2)s1 [Compound 49]	2.64 µM	–
O=C(CCCOc1ccc(Cl)c(Cl)c1)Nc1ncc(Br)s1 [Compound 16]	1.23 µM	–
Cc1cc(OCCCC(=O)Cc2ncc(C(C)C)s2)ccc1Cl [Compound 61]	4.29 µM	–
Cc1cc(OCCC(=O)Nc2ncc(Cl)s2)ccc1Cl [Compound 83]	2.2 µM	–
CCc1cnc(NC(=O)CCCOc2ccc(Br)c(Cl)c2)s1 [Compound 22]	2.01 µM	–
Cc1cc(OCCCC(=O)Nc2ncc(Cl)s2)ccc1Cl [Compound 20]	1.85 µM	–
Cc1cnc(NC(=O)N2CCC(Nc3ccc(Cl)c(C)c3)C2)s1 (centres unmarked) [Compound 80]	10.1 µM	–
O=C(CCCOc1ccccc1)Nc1ccc(Cl)cn1 [Compound 40]	6.86 µM	–
Cc1cc(N2CCN(C(=O)Nc3ncc(Cl)s3)CC2)ncc1C#N [Compound 72]	0.25 µM	–
Cc1cc(OCCCC(=O)Nc2ccc(Cl)cn2)ccc1Cl [Compound 54]	19.4 µM	–
Cc1cc(OCCCC(=O)Nc2ncc(C(F)(F)F)s2)ccc1Cl [Compound 62]	4.74 µM	–
Cc1cnc(NC(=O)CCCOc2ccc(Cl)c(C)c2)s1 [Compound 36]	4.2 µM	–
N#Cc1cnc(NC(=O)CCCOc2ccc(Br)c(Cl)c2)s1 [Compound 21]	2.12 µM	–

Compound	EC50 [1]	EC50 (HIV-LTR driven latent reporter)
Cc1cnc(NC(=O)CCCCc2ccccc2)s1 [Compound 4]	9.26 µM	–
Cc1cnc(NC(=O)CCCOc2cccc(Cl)c2)s1 [Compound 46]	5.23 µM	–
O=C(CCCOc1ccc(Br)c(Cl)c1)Nc1ncc(Br)s1 [Compound 15]	2.56 µM	–
COc1ccc(NC(=O)CCCOc2ccc(Cl)c(C)c2)nc1 [Compound 55]	17.9 µM	–
Cc1cnc(NC(=O)N2CCN(c3ccc(C)c(Cl)c3)CC2)s1 [Compound 63]	0.45 µM	–
Cc1cnc(NC(=O)CCCN(C)c2ccc(Cl)c(C)c2)s1 [Compound 59]	1.11 µM	–
Cc1cnc(NC(=O)CCCOc2ccc(Cl)c(Cl)c2)s1 [Compound 12]	3.22 µM	–
N#Cc1cnc(NC(=O)CCCOc2ccccc2)s1 [Compound 5]	3.48 µM	–
Cc1cc(N2CCN(C(=O)Nc3ncc(C#N)s3)CC2)ccc1Cl [Compound 71]	0.88 µM	–
Cc1ccc(N2CCC(C(=O)Nc3ncc(Cl)s3)CC2)cc1Cl [Compound 78]	11.4 µM	–
Cc1cnc(NC(=O)CCCOc2ccc(Cl)c(C)c2)s1 [Compound 1]	–	4.88 µM
COc1cccc(OCCCC(=O)Nc2ncc(C)s2)c1 [Compound 44]	5.3 µM	–
Cc1cnc(NC(=O)CCCOc2cccc([N+](=O)[O-])c2)s1 [Compound 45]	5.29 µM	–
Cc1cnc(NC(=O)N2CCN(c3ccc(Cl)c(C)c3)CC2)s1 [Compound 69]	0.34 µM	–
O=C(CCCOc1ccccc1)Nc1ncc(C(F)(F)F)s1 [Compound 51]	2.37 µM	–
N#Cc1cnc(NC(=O)N2CCN(c3ccc(Cl)c(Cl)c3)CC2)s1 [Compound 68]	0.52 µM	–
Cc1cnc(NC(=O)CCCOc2cccc(C(F)(F)F)c2)s1 [Compound 47]	6.55 µM	–
O=C(CCCOc1ccccc1)Nc1ccc(C(F)(F)F)cn1 [Compound 30]	9.74 µM	–
Cc1cnc(NC(=O)N2CCN(c3ccc(Cl)c(Cl)c3)CC2)s1 [Compound 66]	0.58 µM	–

Compound	EC50 [1]	EC50 (HIV-LTR driven latent reporter)
Cc1cnc(NC(=O)CCCOc2ccc(Br)c(Cl)c2)s1 [Compound 14]	3.09 µM	–
Cc1ccc(N2CCCN(C(=O)Nc3ncc(Cl)s3)CC2)cc1Cl [Compound 74]	5.2 µM	–
Cc1cc(OCCCC(=O)Nc2ncc(Br)s2)ccc1Cl [Compound 17]	2.83 µM	–
Cc1cnc(NC(=O)CCCOc2cccc(CO)c2)s1 [Compound 48]	4.13 µM	–
Cc1cnc(NC(=O)CCCNc2ccc(Cl)c(C)c2)s1 [Compound 57]	1.7 µM	–
O=C(CCCOc1ccc(Br)c(Cl)c1)Nc1ncc(Cl)s1 [Compound 18]	2.83 µM	–
O=C(CCCOc1ccccc1)Nc1ccc(Br)cn1 [Compound 29]	7.6 µM	–
Cc1cc(NC2CCN(C(=O)Nc3ncc(Cl)s3)C2)ccc1Cl (centres unmarked) [Compound 81]	1.5 µM	–
Cc1ccc(OCCCc2nc3cc(Br)cnc3[nH]2)cc1Cl [Compound 77]	3.97 µM	–
CCc1cnc(NC(=O)CCCOc2ccccc2)s1 [Compound 6]	1.09 µM	–
Cc1ccc(N2CCC(C(=O)Nc3ncc(C#N)s3)CC2)cc1Cl [Compound 79]	3.83 µM	–
Cc1cc(N2CCN(C(=O)Nc3ncc(Cl)s3)CC2)ccc1Cl [Compound 70]	0.21 µM	–
COc1ccccc1OCCCC(=O)Nc1ncc(C)s1 [Compound 42]	1.42 µM	–
Cc1ccc(OCCCC(=O)Nc2ncc(Cl)s2)cc1Cl [Compound 60]	3.56 µM	–
O=C(Nc1ncc(Cl)s1)N1CCN(c2ccc(Cl)c(Cl)c2)CC1 [Compound 67]	0.27 µM	–
O=C(Nc1ncc(Cl)s1)N1CCCN(c2ccc(Cl)c(Cl)c2)CC1 [Compound 75]	5.46 µM	–
O=C(CCCOc1ccc(Cl)c(Cl)c1)Nc1ncc(Cl)s1 [Compound 19]	1.48 µM	–
O=C(CCCOc1ccccc1)Nc1ncc(Cl)s1 [Compound 8]	1.99 µM	–
